For eight compounds, TGI results are on record in PubChem BioAssay (NCI).

Molecules are shown by their SMILES.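 Test compounds were applied to cells in 96-well plates for 48 hours at 5 doses. TGI denotes the concentration required for complete inhibition of growth.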 Where only a bound is given, the exact number is not on record here.

Assay in all cases: NCI tumour cell line growth inhibition, 48 h
Assay [1] deals with EKVX NSCLC.
Assay [2] has as its system PC-3 prostate.
In assay [3] the test system is HCT-15 colon.
In assay [4] the test system is SNB-75 CNS.
For assay [5], the system named is SN12C renal.
Assay [6] deals with UACC-62 melanoma.
Assay [7] has as its system HS 578T breast.
The subject of assay [8] is SR leukemia.
The test system of assay [9] is NCI/ADR-RES ovarian.
The subject of assay [10] is K-562 leukemia.
For assay [11], the system named is NCI-H522 lung.
Assay [12] concerns LOX IMVI melanoma.
Assay [13] relates to U251 CNS.
Assay [14] relates to MOLT-4 leukemia.
In assay [15] the test system is M14 melanoma.
Assay [16] concerns SF-295 CNS.
Assay [17] relates to HCC-2998 colon.
Assay [18] has as its system DU-145 prostate.
Assay [19] concerns SK-MEL-5 melanoma.

Turning to `N#C/C(=C\c1ccc(F)cc1)c1nc2ccccc2c(=O)[nH]1`, the TGI is above 100 µM in [1]; above 100 µM in [2]; above 100 µM in assay [3]; 74.5 µM in [4]; above 100 µM in [5]; above 100 µM in assay [6]. The TGI in assay [7], in assay [8], in [9], in assay [10], in assay [11] and in [12] was above 100 µM each time. Further, the TGI in [13], in assay [14], in assay [15], in [16], in assay [17] and in [18] was above 100 µM throughout.
With `COc1cc(/C=C/C=C2\CCC/C(=C\C=C\c3ccc(O)c(OC)c3)C2=O)ccc1O`, the TGI in assay [1] is 64.7 µM; in assay [2], 38.2 µM; in assay [3], 43.7 µM; in [4], above 100 µM; in assay [5], 65.8 µM; in assay [6] it was 31.6 µM. For the same compound, the TGI is above 100 µM in assay [7]; 19.7 µM in [8]; 48.8 µM in assay [9]; above 100 µM in assay [10]; 3.39 µM in assay [11]; 33.5 µM in [12]. In addition, the TGI is above 100 µM in [13]; 10.4 µM in assay [14]; above 100 µM in assay [15]; 27 µM in assay [16]; 27.2 µM in assay [19]; above 100 µM in assay [17]. The compound further yielded a TGI in [18] above 100 µM.
As for `COc1cccc(CCn2c(N)c(C(=O)O)c3ccc([N+](=O)[O-])cc3c2=O)c1`, the TGI was above 100 µM in assay [1]; above 100 µM in assay [2]; above 100 µM in [3]; 90.3 µM in [4]; above 100 µM in assay [5]; above 100 µM in assay [6]. Besides, the TGI is above 100 µM in [7]; above 100 µM in assay [8]; 89.7 µM in assay [9]; above 100 µM in assay [10]; 75.8 µM in [11]; above 100 µM in assay [12]. Further, the TGI in assay [13], in assay [14], in assay [15], in assay [16], in assay [19] and in [17] was above 100 µM in each case. The TGI in [18] is above 100 µM.
For `Cc1ccc(-c2cn3c(nc4ccccc43)c(-c3ccccc3)n2)cc1`, the TGI is above 100 µM in assay [1]; above 100 µM in assay [2]; above 100 µM in assay [3]; above 47.7 µM in assay [4]; above 100 µM in assay [5]; above 72.5 µM in [6]. For the same compound, the TGI in [7] was above 77.2 µM; in [8], above 100 µM; in assay [9], above 100 µM; in assay [10], above 100 µM; in assay [11] it was above 100 µM; in assay [12], above 100 µM. Also, the TGI in assay [13] was above 66.6 µM; in assay [14], above 100 µM; in assay [15], above 100 µM; in assay [16], above 67.1 µM; in assay [19], above 100 µM; in assay [17], above 100 µM. Moreover, the TGI in assay [18] was above 100 µM.
In the case of `CN(C)Cc1cc(C(=O)/C=C/c2ccc(Br)cc2)cc(CN(C)C)c1O`, the TGI in assay [1] stood at 36.3 µM; in assay [2], 10.2 µM; in [3] it was 25.3 µM; in assay [4] it was 35.3 µM; in assay [5], 14.8 µM; in assay [7], 45.1 µM. The TGI in assay [8] is 50.6 µM; in assay [9] it was above 100 µM; in assay [10], 10.8 µM; in assay [11] it was 12.6 µM; in assay [12] it was 5.43 µM; in assay [13], 33.5 µM. Further, the TGI in [14] was determined as 19.6 µM; in assay [15], 22.1 µM; in assay [16], 19 µM; in [19], 28.5 µM; in [17] it was 27.8 µM; in assay [18], 25.1 µM.
For `Cc1ccc(C(=O)OC(C)C)cc1N=NN(C)C`, the TGI in [1], in assay [2], in [3], in assay [5], in [6] and in assay [7] was above 100 µM each time. In addition, the TGI in assay [8], in assay [9], in assay [10], in assay [11], in assay [12] and in assay [13] was above 100 µM each time. The TGI in [14], in assay [15], in assay [16], in assay [19], in assay [17] and in assay [18] was above 100 µM throughout.
Turning to `NC(N)=NCc1ccc2c(c1)OCO2`, the TGI in assay [1], in [2], in assay [3], in [4], in [6] and in assay [7] was above 100 µM throughout. Moreover, the TGI in assay [8], in [9], in [10], in assay [11], in [12] and in assay [13] was above 100 µM in each case. Moreover, the TGI in assay [14] was above 100 µM; in assay [15] it was above 100 µM; in [16] it was above 100 µM; in [19], 49.7 µM; in assay [17] it was above 100 µM; in assay [18], above 100 µM.
For the compound `O=C1N(CN2CCOCC2)CN(CN2CCOCC2)C(=O)N1Cc1ccc(-c2ccc(CN3C(=O)N(CN4CCOCC4)CN(CN4CCOCC4)C3=O)cc2)cc1`, the TGI is 61.5 µM in assay [1]; above 79.5 µM in assay [2]; above 91.2 µM in assay [3]; 49.6 µM in assay [4]; 37.7 µM in assay [6]; above 100 µM in assay [7]. Moreover, the TGI is 18.9 µM in assay [8]; 80.8 µM in assay [9]; 69 µM in [10]; 35.4 µM in assay [11]; 40.6 µM in [12]; above 70.8 µM in assay [13]. The TGI is above 100 µM in [14]; 21.3 µM in assay [15]; 65.6 µM in [16]; above 38.9 µM in [19]; 28.3 µM in assay [17]; 40.1 µM in assay [18].
